Laboratory results: patent publication US11865091B2, “Supporting immunomodulatory agent” (Flexopharm Brain GMBH & Co. KG, priority 2014, dated 2024)
Entries after “also recorded” stand apart in the source; their conditions may differ.

Tests used:
CD4+CD25+ Foxp3 cells = experiment: Regulatory T cell levels in mouse EAE model; type: in vivo; settings: for proliferation and amount of regulatory T cells: in the intestines and blood
Procedure: FIG. 4: is a graph showing the effect of propionic acid diet initiated at the time of disease induction (DI) compared to a control group on levels of CD4+CD25+ Foxp3 cells in mouse EAE model.
FIG. 5 is a graph showing the effect of lauric acid diet (250 μM and 500 μM) initiated at the time of disease induction (DI) compared to a control group on levels of CD4+CD25+ Foxp3 cells in mouse EAE model.
(§1) Mice kept under standardized conditions were fed on a normal diet enriched with long-chain fatty acids (30.9% lauric acid) and additionally with 200 μl of propionate daily administered orally. The propionate was given either at the time of disease induction (DI) or at the onset of the disease (OD).
(§2) For the induction of EAE the mice were anesthetized and administered two subcutaneous injections of a 50 μl emulsion applied to the left and right tail basis and comprising a total of 200 μg MOG35-55 (myelin oligodendrocyte glycoprotein) and 200 μg Freund's adjuvant (CFA) with 4 mg/ml of M. tuberculosis. Pertussistoxin ([…]) was given intraperitoneally on day 0 and 2 after the induction. The clinical assessment took place on a daily basis using a 5-point scale (SEM). The assessment was as follows: • 0=normal • 1=Tail paralysis impairing raising • 2=Gait ataxia • 3=Paraparesis of hind legs • 4=Tetraparesis • 5=Death Mice showing SEM 4 or 5 were excluded.

intestinal microbiota = experiment: Composition of the intestinal microbiome; type: in vivo, mice; settings: for effect on normal intestinal microbiota / number of bacteria degrading propionate and butyrate: intestinal microbiome
Text: The inventive acids, in particular propionic acid and butyric acid have an influence on the bowel physiology and the microbiome present there. In this way, they have an impact on the composition of the microbiome.

TH1 and TH17 cells = experiment: Th1/Th17 cells in small intestine and central nervous system, EAE model; type: in vivo; settings: mouse EAE, lauric acid enriched diet
Text: (§3) Moreover, the aliphatic chain length of the carboxylic acids also affects the […] autoimmunity as well as the regulatory response of Treg in an in vivo mouse model.

[1] = test system: experimental autoimmune encephalomyelitis (EAE); experiment: Mouse EAE model: relative axonal density, demyelination of white matter, CD3+ cells; type: in vivo; settings: versus control group, FIG. 3
Procedure: FIG. 3: is a graph showing the effect of propionic acid diet initiated at the time of disease induction (DI) or at the time of onset of symptoms (OD) compared to a diet control group on relative axonal density, demyelination in the white matter, and CD3+ cells in the mouse EAE model.
as §1, §2
The influence of propionic acid on the relative axonal density, the demyelination of the white matter, and the number of CD3+-cells is shown in FIG. 3.

Foxp3 = experiment: Gene expression profiling of signature cytokines in EAE mice; type: in vivo, mouse; settings: EAE mice fed propionic acid
Text: as §3

TGFβ = experiment: as above; type: in vivo, mouse; settings: EAE mice fed propionic acid
Text: as §3

IL-10 = experiment: as above; type: in vivo, mouse; settings: EAE mice fed propionic acid
Text: as §3

[2] = test system: experimental autoimmune encephalomyelitis (EAE); experiment: Mouse EAE model, daily clinical assessment on 5-point scale (SEM); type: in vivo
Procedure: as §1, §2

adiponectin = experiment: Clinical study of sodium propionate, adiponectin levels; type: in vivo, human; settings: 4 weeks after administration had been terminated, FIG. 6 column C
Text: FIG. 6 is a graph showing the effect of administration of sodium propionate in a clinical study in ten patients on adiponectin levels.

`CCCC(=O)O` [butyric acid] was tested, and the “proliferation and amount of regulatory T cells” value (CD4+CD25+ Foxp3 cells) was “positive effect”, the “effect on normal intestinal microbiota” value (intestinal microbiota) was “only slightly affected” and the “number of bacteria degrading propionate and butyrate” value (intestinal microbiota) was “increases significantly”.
`CCCCCCCCCCCC(=O)O` [lauric acid, reference compound] was tested, and the “concentration dependence of the percentage reduction of CD4+CD25+ Foxp3 cells” value (CD4+CD25+ Foxp3 cells; lauric acid 250 μM and 500 μM, FIG. 5) was “dependent on concentration”, the “CD4+CD25+ Foxp3 cells” value (CD4+CD25+ Foxp3 cells; lauric acid 250 μM and 500 μM, versus control value, FIG. 5) was “reduction” and the “TH1 and TH17 cells in the small intestine” value (TH1 and TH17 cells) was “significant reduction”. The “Th1/Th17 in the central nervous system” value (TH1 and TH17 cells) was “accumulation” and the “number of Provotellaceae and some families of Phylum Bacteroidetes” value (intestinal microbiota; mice) was “reduce significantly”.
For `CCC(=O)O` [propionic acid], the “proliferation and amount of regulatory T cells” value (CD4+CD25+ Foxp3 cells) was “positive effect”, the “number of regulatory T cells (CD4+CD25+ Foxp3+ Treg)” value (CD4+CD25+ Foxp3 cells; mouse EAE, propionic acid at disease induction (DI), versus control group, FIG. 4) was “significant increase” and the “demyelination of the white matter” value [1] was “significant improvement”. The “number of CD3+ cells” value [1] was “significant improvement”, the relative axonal density [1] was “significant improvement” and the Foxp3 gene expression (Foxp3) was “increased values; also recorded: significant increase”. For the same compound, the TGFβ gene expression (TGFβ) was “increased values; also recorded: significant increase”, the IL-10 gene expression (IL-10) was “increased values; also recorded: significant increase” and the “disease course versus control group” value ([2]; propionic acid given on the day of onset of disease (OD), FIG. 2) was “significantly less favorable disease course”. The “disease course versus control group” value ([2]; propionic acid given prophylactically (at disease induction, DI)) was “significant improvement”, the “effect on normal intestinal microbiota” value (intestinal microbiota) was “only slightly affected” and the “number of bacteria degrading propionate and butyrate” value (intestinal microbiota) was “increases significantly”.
For `CCC(=O)[O-].[Na+]` [sodium propionate], the “duration of the adiponectin effect” value (adiponectin) was “lasts longer than the administration duration”.
